Here are results for 4 compounds from patent US20060269907A1, “Decontamination of biological fluids using diphenylpyrilium compounds” (priority 2003, published 2006).

For data set [1], the system named is extracellular VSV. Type of data set: cell-based, Vesicular Stomatitis Virus.
Data set [2] concerns intracellular VSV. Type of data set: cell-based, Vesicular Stomatitis Virus.
Data set [3] has as its system E. coli. The experiment in a line: Bacterial photoinactivation in red cell suspensions. The class given is cell-based.
Data set [4] has as its system S. marcescens. The class given is cell-based.
The subject of data set [5] is Y. enterocolitica. Briefly: Bacterial photoinactivation in red cell suspensions. Type of data set: cell-based.
The test system of data set [6] is D. radiodurans. The data set is described as above. The class given is cell-based. To be noted: 160 μM compound 2; RBCs 20% hematocrit in Erythrosol; 2 min 8.9 mW/cm^2 red light.
Data set [7] concerns S. epidermidis. The class given is cell-based.
Data set [8] relates to S. aureus. Briefly: Bacterial photoinactivation in red cell suspensions. Type of data set: cell-based.
Data set [9] has as its system P. fluorescens. The class given is cell-based.
The test system of data set [10] is S. liquefaciens. Type of data set: cell-based.
For data set [11], the system named is gram positive and gram negative organisms. The class given is cell-based.
Data set [12] deals with red cells.
Data set [13] deals with extracellular HIV. Briefly: Photoinactivation of extracellular HIV in RBC suspensions. Type of data set: cell-based, HIV-1. The conditions noted are these: 80 μM TP; 200 μM DP; 20-percent hct RBCs in Erythrosol; 1.1 J/cm^2 light.
The subject of data set [14] is intracellular HIV. The experiment in a line: Photoinactivation of intracellular HIV in RBC suspensions. The class given is cell-based, HIV-1. To be noted: 80 μM TP; 200 μM DP; 20-percent hct RBCs in Erythrosol; 1.1 J/cm^2 light.
The subject of data set [15] is extracellular PRV. Type of data set: cell-based, Pseudorabies virus.
Data set [16] has as its system extracellular DHBV. Briefly: Photoinactivation of extracellular DHBV in RBC suspensions. The class given is cell-based. To be noted: 10 μM TP; 200 μM DP; 20-percent hct RBCs in Erythrosol; 1.1 J/cm^2 light.
Data set [17] has as its system extracellular BVDV. The class given is cell-based.
Data set [18] deals with all tested viruses. The class given is cell-based.
The subject of data set [19] is red cells. To be noted: n=10.
The subject of data set [20] is RBCs. The conditions noted are these: n = 4.
For data set [21], the system named is red blood cells. The conditions noted are these: cited from earlier work.
Data set [22] relates to RBCs. The experiment in a line: Spectroscopic assay of TP binding to RBCs. To be noted: 200 μM DP; 160 μM TP; 20-percent hct RBCs in Erythrosol.
[23] abbreviates: 160 μM compound 2, RBCs 20% hematocrit in Erythrosol, 2 min 8.9 mW/cm^2 red light.
The mark [24] stands for this setting: 100 μM TP, 200 μM DP and 1.1 J/cm^2 red light, 20% hct RBCs in Erythrosol, n = 4.

SMILES strings stand for the structures. Where two headings read alike, the source gives them in different places.

As to `Cc1cc(-c2ccc(N(C)C)cc2)cc(-c2ccc(N(C)C)cc2)[s+]1` [Compound 2, 2′,4′-bis(4-N,N-dimethylaminophenyl) 6′-methylthiopyrilium iodide], the “log10 inactivation of extracellular VSV” value in [1] is listed as > 7 log10. The “Log10 VSV inact. (extracellular)” value is 1.3 log10 in data set [1] (10 μM); 2.2 log10 in [1] (20 μM); 2.7 log10 in data set [1] (30 μM); 4.8 log10 in data set [1] (60 μM); 5.7 log10 in data set [1] (90 μM); >7 log10 in data set [1] (160 μM). Further, the “log10 inactivation of intracellular VSV” value in [2] stood at 4.0 log10. The “log10 VSV inact. (intracellular)” value in data set [2] (160 μM) is recorded as >5 log10. In addition, the log10 inactivation in data set [3] (setting [23]) is given as >7.9 log10; in [4], >6.9 log10; in data set [5] (setting [23]), >7.5 log10; in data set [6], >7.9 log10; in data set [7] it was >7.9 log10; in data set [8] (setting [23]), >6.8 log10. Also, the values for the log10 inactivation in data set [9] and in [10] were >7.7 log10 and >7.4 log10, respectively. Also, in [11], the “bacteria remaining after inactivation (limit of detection)” value is < 1 CFU/mL. In addition, the hemolysis in [12] is < 1%. Also, the “Hemolysis (%) (day 42)” value in [12] (160 μM) was 0.45%.
On to `Cc1cc(-c2ccc(N(C)C)cc2)cc(-c2ccc(N(C)C)cc2)[s+]1.[I-]` [Compound 2, 2′,4′-bis(4-N,N-dimethylaminophenyl) 6′-methylthiopyrilium iodide], for which the “log10 inactivation of extracellular VSV” value in data set [1] is on record as > 8.4 log10. Moreover, the “log10 inactivation” value in [3] (setting [24]) is 7.1 ± 0.5 log10; in data set [4] (n = 4), 6.2 ± 1.0 log10; in [5] (setting [24]), 5.9 ± 0.6 log10; in data set [7] (n = 4), >7.6 log10; in data set [8] (setting [24]), >6.3 log10; in [9] (n = 4), 5.4 ± 1.0 log10. Besides, in data set [10] (n = 4), the “log10 inactivation” value was >7.1 log10. Besides, the “log10 inactivation of 5 of 7 tested organisms” value in data set [11] is reported as > 6 log10. Also, the “log10 inactivation of all tested organisms” value in data set [11] is > 4 log10. In addition, the “log10 inactivation of extracellular HIV” value in data set [13] is > 7.5 log10. The “log10 inactivation of intracellular HIV” value in data set [14] was 6.2±0.1 log10. Also, in [15], the “log10 inactivation of extracellular PRV” value is on record as > 6.3 log10. Besides, in data set [16], the “log10 inactivation of extracellular DHBV” value is given as > 5.8 log10. The “log10 inactivation of extracellular BVDV” value in data set [17] was > 6 log10. Besides, in data set [18], the “inactivation of all tested viruses” value is “inactivated to the limit of assay detection”. For the same compound, the “hemolysis following 42 day 1-6° C. storage” value in data set [12] (n=10) turned out to be 0.29%. Also, the “potassium in the supernatant” value in data set [19] is 16.6 ± 4.2 mM. The “potassium released to the supernatant” value in data set [19] stood at 38.4 ± 4.4 mM. In [20], the ATP level came out at 2.63±0.07 μmole/g Hb. The same compound had a morphology score in [20] of 94.5±1.5.
Take `Cc1cc(=[N+](C)C)cc2sc3cc(N(C)C)cc(C)c3nc1-2.[Cl-]` [dimethylmethylene blue]: the hemolysis entry in data set [21] (dye and light, after 6 week refrigerated storage in ADSOL) was “roughly 25%”; in data set [21] (following 6 weeks of 1-6° C. storage in Erythrosol), “about 2%”; in data set [21] (six weeks of 1-6° C. storage in Erythrosol, RBCs pre-incubated with quinacrine), “approximately 1.2%”.
For the compound `OCCN(CCO)c1nc(N2CCCCC2)c2nc(N(CCO)CCO)nc(N3CCCCC3)c2n1` [dipyridamole, reference compound], the “TP binding sites in RBCs blocked by DP” value in [22] was “approximately 36%”.
